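Interpolation was linear, between the two tested concentrations surrounding the appropriate level; five concentrations were tested over 48 hours in 96-well plates. GI50 = concentration required for 50% inhibition of growth.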 Calls of active or inactive are those of the source. No stated cut-off is given here; in the data, active = GI50 up to about 1.1 µM and inactive = higher.
Columns and labels:
Experiment in all cases: NCI tumour cell line growth inhibition, 48 h
OVCAR-3 = tested on: OVCAR-3
HL-60 = tested on: HL-60
SF-268 = tested on: SF-268
ACHN = tested on: ACHN
NCI-H460 = tested on: NCI-H460
SW-620 = tested on: SW-620
NCI-H226 = tested on: NCI-H226
KM12 = tested on: KM12
SF-295 = tested on: SF-295
HT-29 = tested on: HT-29
CAKI-1 = tested on: CAKI-1
UO-31 = tested on: UO-31
SNB-19 = tested on: SNB-19
OVCAR-4 = tested on: OVCAR-4
NCI-H522 = tested on: NCI-H522
UACC-257 = tested on: UACC-257
SK-OV-3 = tested on: SK-OV-3
SR = tested on: SR
U-251 = tested on: U-251
IGROV-1 = tested on: IGROV-1

Measured: GI50

C[C@]12CCC(=O)C(O)=C1CC[C@@H]1[C@@H]2CC[C@]2(C)C(=O)CC[C@@H]12 [FORMESTANE]
inactive: OVCAR-3 > 100 µM | HL-60 > 80.9 µM | SF-268 > 100 µM | ACHN > 100 µM | NCI-H460 > 100 µM | SW-620 > 100 µM | NCI-H226 > 100 µM | KM12 > 74.3 µM | SF-295 > 100 µM | HT-29 > 92.7 µM | CAKI-1 > 92.9 µM | UO-31 > 90.2 µM | SNB-19 > 100 µM | OVCAR-4 > 100 µM | NCI-H522 > 100 µM | UACC-257 > 100 µM | SK-OV-3 > 100 µM | SR > 100 µM | U-251 > 100 µM | IGROV-1 > 100 µM

CC(=O)OCC1OC(OCCCCCCO)C(OC(C)=O)C(OC(C)=O)C1OC(C)=O (stereo not given)
inactive: OVCAR-3 > 100 µM | HL-60 > 100 µM | SF-268 > 100 µM | ACHN > 100 µM | NCI-H460 > 100 µM | SW-620 > 100 µM | NCI-H226 > 100 µM | KM12 > 100 µM | SF-295 > 100 µM | HT-29 > 100 µM | CAKI-1 > 100 µM | UO-31 > 100 µM | SNB-19 > 100 µM | OVCAR-4 > 100 µM | NCI-H522 > 100 µM | UACC-257 > 100 µM | SK-OV-3 > 100 µM | SR > 100 µM | U-251 > 100 µM | IGROV-1 > 100 µM

Reference: ChEMBL document CHEMBL1201862, “PubChem BioAssay data set” (2004)
